One experiment concerns adenosine deaminase. Conditions: qualitative statement; cited from earlier work.
Experiment [1] has as its target T1, Mouse kidney cytidine deaminase (Mus musculus, UniProt P56389).
T1 construct: isolated and partially purified from mouse kidney acetone powder; tissue Sigma Chemical Co; host or cells: mouse kidney (acetone powder, buffer extract, ammonium sulfate fractionation)
Kind of experiment: Cytidine deaminase inhibition, mouse kidney enzyme. It is filed as biochemical.

Experiment [2] concerns the target T2, Cytidine deaminase from human liver (Homo sapiens, UniProt P32320).
T2 construct: Cytidine deaminase from human liver was isolated; from tissue; host or cells: human liver
Description: Cytidine deaminase inhibition, human liver enzyme. The format is biochemical.

Results on 3 compounds are retold here after US4275057A (The United States of America as represented by the …, priority 1980, dated 1981).

The structures appear in SMILES notation.

T1 sequence (P56389 whole entry): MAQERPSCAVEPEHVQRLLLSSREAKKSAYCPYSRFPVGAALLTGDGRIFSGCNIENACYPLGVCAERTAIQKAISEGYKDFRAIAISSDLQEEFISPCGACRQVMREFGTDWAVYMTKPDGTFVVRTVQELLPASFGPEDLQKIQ
T2 sequence (P32320 whole entry): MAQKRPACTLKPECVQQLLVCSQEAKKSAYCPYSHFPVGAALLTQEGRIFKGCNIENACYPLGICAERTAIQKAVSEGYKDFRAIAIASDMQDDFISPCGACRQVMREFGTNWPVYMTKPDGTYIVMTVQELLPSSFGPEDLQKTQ

Take `OC[C@H]1O[C@@H](n2cnc3c2N=CNC[C@H]3O)C[C@@H]1O` [2'-deoxycoformycin]: in the experiment on adenosine deaminase, the “inhibition of adenosine deaminase (in words)” value is on record as “very potent adenosine deaminase inhibitor”.
Turning to `O=C1CCNC(=O)N([C@@H]2O[C@H](CO)[C@@H](O)[C@H]2O)C1` [Compound 8b, 3-(β-D-Ribofuranosyl)-5-keto-perhydro-1,3-diazepin-2-one], the Ki in experiment [1] and in experiment [2] was 10 µM each time.
As for `O=C1NCCCCN1C1C[C@H](O)[C@@H](CO)O1` (stereo partly drawn) [Compound 3d, 1-(2-deoxy-D-erythro-pentofuranosyl)-perhydro-1,3-diazepin-2-one], the inhibition constant Ki in experiment [1] is 0.2 µM. That is a sub-micromolar value.
